The results in this text go back to patent publication US10124017B2, “Use of Ginsenoside M1 for preventing or treating gout” (priority 2015, dated 2018).

For experiment [1], the system named is mouse J774A.1 macrophages. Briefly: CPPD-induced IL-1β production in LPS-primed J774A.1 macrophages (ELISA). In kind it is cell-based. The conditions noted are these: 1 μg/ml LPS 30 min, then 100 μg/ml CPPD 24 h; FIG. 2; p<0.001 compared to CPPD alone. As to the method: (§1) The mouse macrophages cell line J774A.1 and human monocytic leukemia cell line THP-1 was obtained from the American Type Culture Collection (Rockville, Md.) and cultured in RPMI 1640 medium supplemented with 10% heat-inactivated fetal bovine serum (FBS) and 2 mM L-glutamine (all from Life Technologies, Carlsbad, Calif.) at 37° C. in a 5% CO2 incubator. To induce monocyte-to-macrophage differentiation, THP-1 cells were cultured for 48 h in RPMI-1640 medium supplemented with 100 nM phorbol 12-myristate 13-acetate (Sigma-Aldrich).
(§2) In FIGS. 1 and 2, J774A.1 macrophages (1×10^5 cells/500 μl medium/well) were incubated for 30 min with or without Ginsenoside M1, then for 30 min with or without 1 μg/ml LPS (from Escherichia coli 0111:B4, purchased from Sigma, St. Louis, Mo.) in the continued presence or absence of Ginsenoside M1, and then for 24 h with or without 100 μg/ml MSU or 100 μg/ml CPPD (all purchased from InvivoGen, San Diego, Calif.). The levels of IL-1β in the culture medium were measured by ELISA.
(§3) For ELISA assay, 50 μl of biotinylated antibody reagent and 50 μl of culture medium were added to an anti-mouse IL-1β or IL-6 precoated stripwell plate, and incubated at room temperature for 2 h. […] Following the addition of 100 μl of provided stop solution to each well to stop the reaction, the absorbance of the plate was measured by a microplate reader at a 450 nm wavelength. […]
A general note: An ELISA detects its analyte on a solid surface through an enzyme-linked reagent.

The test system of experiment [2] is LPS-activated J774A.1 macrophages. Briefly: LPS-induced NLRP3 and proIL-1β expression in J774A.1 macrophages (Western blot). Particulars: 1 μg/ml LPS 6 h, FIG. 3. It is filed as cell-based, mouse. As to the method:
as §1
In FIG. 3, J774A.1 macrophages (2×10^6 cells/2 ml medium/dish) were incubated for 30 min with or without Ginsenoside M1, then for 6 h with or without 1 μg/ml LPS (from Escherichia coli 0111:B4, purchased from Sigma, St. Louis, Mo.) in the continued presence or absence of Ginsenoside M1. The levels of NLRP3 and proIL-1β in the cell lysates were measured by Western blot. […]
J774A.1 macrophages were incubated for 30 min with or without Ginsenoside M1, then for 6 h with or without 1 μg/ml LPS in the continued presence or absence of Ginsenoside M1. The levels of NLRP3 and proIL-1β in the cell lysates were measured by Western blot.
(In general: Immunoblotting shows a protein as a band on a membrane.)

The test system of experiment [3] is mouse J774A.1 macrophages. Briefly: MSU-induced IL-1β production in LPS-primed J774A.1 macrophages (ELISA). It is filed as cell-based. The conditions noted are these: 1 μg/ml LPS 30 min, then 100 μg/ml MSU 24 h; FIG. 1; p<0.001 compared to MSU alone. As to the method: as §1, §2, §3
The next experiment concerns C57BL/6 mice. Briefly: MSU-induced peritonitis in vivo (acute gout inflammation). Details: species or system mouse. The conditions noted are these: 60 mg/kg oral by gavage day 0, 1, 2, 3 mg MSU i.p., p<0.001 compared to MSU-injection group. As to the method: In FIG. 7-9, the animal experiments were conducted in accordance with the guidelines of the National Institutes of Health and approved by the Institutional Animal Care and Use Committee of National Ilan University. Male C57BL/6 mice were purchased from the National Laboratory Animal Center (Taipei, Taiwan). The animals were provided a chow diet and water ad libitum under conditions of 22-24° C., 40-70% relative humidity, and a 12 h light-dark cycle. Ginsenoside M1 (60 mg/kg body weight) was oral administered daily by gavage at day 0, 1 and 2. Acute gout inflammation was induced by intraperitoneal injection each mice with 3 mg of MSU in 0.5 mL of phosphate-buffered saline (PBS) at day 0 and day 2 1 h after Ginsenoside M1 administration. Control mice received 0.5 mL PBS without MSU (n=6). After 4 h, all mice were sacrificed using neck breaking, and the mice were intraperitoneally injected with 5 mL of PBS. The peritoneal fluid was then collected, and the volume of peritoneal fluid was about 4 mL from each mouse. The collected peritoneal exudate cells were washed and resuspended in PBS. The cells were stained with fluorescent antibodies against the neutrophils specific surface markers Ly-6G and CD45 (eBioscience, San Diego, Calif., USA) for 20 min at 37° C. in the dark, and the cell populations were sorted using a FACScan flow cytometer (Becton-Dickinson, San Jose, Calif.). The levels of IL-1β and IL-6 in the peritoneal fluid were measured by ELISA.
For ELISA assay, 50 μl of biotinylated antibody reagent and 50 μl of culture medium were added to an anti-mouse IL-1β or IL-6 precoated stripwell plate, and incubated at room temperature for 2 h. After washing the plate three times with washing buffer, 100 μl of diluted streptavidin-HRP (horseradish peroxidase) concentrate was added to each well and incubated at room temperature for 30 min. […] Following the addition of 100 μl of provided stop solution to each well to stop the reaction, the absorbance of the plate was measured by a microplate reader at a 450 nm wavelength.

A further experiment concerns human THP-1 macrophages. Briefly: MSU-induced IL-1β, TNF-α and IL-6 production in LPS-primed THP-1 macrophages (ELISA). In kind it is cell-based. Particulars: 1 μg/ml LPS 6 h, then 100 μg/ml MSU 24 h. The procedure:
as §1
In FIG. 4-6, THP-1 macrophages (1×10^5 cells/500 μl medium/well) were incubated for 6 h with or without 1 μg/ml LPS, then for 30 min with or without Ginsenoside M1, in the continued presence or absence of LPS, and then for 24 h with or without 100 μg/ml MSU. The levels of IL-1β in the culture medium were measured by ELISA.
For ELISA assay, 50 μl of biotinylated antibody reagent and 50 μl of culture medium were added to an anti-mouse IL-1β or IL-6 precoated stripwell plate, and incubated at room temperature for 2 h. After washing the plate three times with washing buffer, 100 μl of diluted streptavidin-HRP (horseradish peroxidase) concentrate was added to each well and incubated at room temperature for 30 min. The washing process was repeated; then 100 μl of a premixed tetramethylbenzidine substrate solution was added to each well and developed at room temperature in the dark for 30 min. Following the addition of 100 μl of provided stop solution to each well to stop the reaction, the absorbance of the plate was measured by a microplate reader at a 450 nm wavelength.
To confirm the anti-inflammatory activities of Ginsenoside M1, human THP-1 macrophages were incubated for 6 h with or without 1 μg/ml LPS, then for 30 min with or without Ginsenoside M1, in the continued presence or absence of LPS, and then for 24 h with or without 100 μg/ml MSU. The levels of IL-1β in the culture medium were measured by ELISA.

For the compound `CC(C)=CCC[C@](C)(O[C@@H]1OC(CO)[C@@H](O)[C@@H](O)C1O)[C@H]1CC[C@]2(C)C1[C@H](O)CC1[C@@]3(C)CC[C@H](O)C(C)(C)C3CC[C@]12C` (stereo partly drawn) [Ginsenoside M1, 20-O-β-D-glucopyranosyl-20(S)-protopanaxadiol], the “IL-1β secretion in the culture medium” value in experiment [1] and in experiment [3] was “reduced” in each case. The “level of NLRP3 in the cell lysates” value in experiment [2] is “reduced”. Moreover, in experiment [2], the “level of proIL-1β in the cell lysates” value is “reduced”. Moreover, in the experiment on C57BL/6 mice (FIG. 7), the “MSU-induced IL-1β production in the murine peritoneal fluid” value is “significantly reduced”. For the same compound, the “MSU-induced IL-6 production in the murine peritoneal fluid” value with C57BL/6 mice (FIG. 8) is “significantly reduced”. The “levels of MSU-induced Ly-6G+ neutrophils in the peritoneal fluid” value in the experiment on C57BL/6 mice (flow cytometry, FIG. 9) was “significantly reduces”. Further, the “IL-1β production in the culture medium” value in the experiment on human THP-1 macrophages (FIG. 4, p<0.05 and p<0.001 compared to MSU alone) was “reduced”. Also, in the experiment on human THP-1 macrophages (FIG. 5, p<0.05 and p<0.001 compared to MSU alone), the “TNF-α production in the culture medium” value is reported as “reduced”. In the experiment with human THP-1 macrophages (FIG. 6, p<0.001 compared to MSU alone), the “IL-6 production in the culture medium” value is “reduced”.
